Laboratory results reported in patent US10604514B2, “6-(5-membered heteroaryl)isoquinolin-3-yl carboxamides and preparation and use thereof” (Samumed, LLC, priority 2017, dated 2020).
pEC50: −log10 of the molar value. Like-named read-outs stand apart in the source and are kept apart here.

Assays:
[1] = tested on: Wnt activity (Sp5-Luc reporter in SW480 colon carcinoma cells); assay: Wnt activity screening assay (Sp5-Luc reporter gene assay); type: cell-based, human; settings: Homo sapiens; for pEC50: Sp5-Luc reporter, SW480 cells, 36 to 48 hours
Excerpt: The screening assay for Wnt activity is described as follows. Reporter cell lines can be generated by stably transducing cancer cell lines (e.g., colon cancer) or primary cells (e.g., IEC-6 intestinal cells) with a lentiviral construct that includes a Wnt-responsive promoter driving expression of the firefly luciferase gene.
SW480 colon carcinoma cells were transduced with a lentiviral vector expressing luciferase with a human Sp5 promoter consisting of a sequence of eight TCF/LEF binding sites. SW480 cells stably expressing the Sp5-Luc reporter gene and a hygromycin resistance gene were selected by treatment with 150 μg/mL of hygromycin for 7 days. These stably transduced SW480 cells were expanded in cell culture and used for all further screening activities. Each compound was dissolved in DMSO as a 10 mM stock and used to prepare compound source plates. Serial dilution (1:3, 10-point dose-response curves starting from 10 μM) and compound transfer was performed using the ECHO 550 (Labcyte, Sunnyvale, Calif.) into 384-well white solid bottom assay plates (Greiner Bio-One) with appropriate DMSO backfill for a final DMSO concentration of 0.1%. For Sp5-Luc reporter gene assays, the cells were plated at 4,000 cells/well in 384-well plates with a DMEM medium containing 1% fetal bovine serum, and 1% Penicillin-Streptomycin and incubated for 36 to 48 hours at 37° C. and 5% CO2. Following incubation, 15 μl of BriteLite Plus luminescence reagent (Perkin Elmer) was added to each well of the 384-well assay plates. The plates were placed on an orbital shaker for 2 min and then luminescence was quantified using the Envision (Perkin Elmer) plate reader. Readings were normalized to DMSO only treated cells, and normalized activities were utilized for EC50 calculations using the dose-response log (inhibitor) vs. response -variable slope (four parameters) nonlinear regression feature available in GraphPad Prism 5.0 (or Dotmatics).

[2] = tested on: LL29 cells (primary human fibroblasts derived from IPF patients), α-smooth muscle actin; assay: Inhibition of fibrotic process: αSMA in TGF-β1-treated primary human fibroblasts from IPF patients (LL29 cells); type: cell-based; settings: Homo sapiens, Fibroblast, 96 h; % αSMA-positive LL29 cells, TGF-β1 20 ng/mL, 4 days
Excerpt: Representative compounds were screened using primary human fibroblasts (derived from IPF patients) treated with TGF-β1 to determine their ability to inhibit the fibrotic process.
Primary human fibroblasts derived from IPF patients (LL29 cells) [^1Xiaoqiu Liu, et. al., “Fibrotic Lung Fibroblasts Show Blunted Inhibition by cAMP Due to Deficient cAMP Response Element-Binding Protein Phosphorylation”, Journal of Pharmacology and Experimental Therapeutics (2005), 315(2), 678-687; ^2Watts, K. L., et. al., “RhoA signaling modulates cyclin D1 expression in human lung fibroblasts; implications for idiopathic pulmonary fibrosis”, Respiratory Research (2006), 7(1), 88] were obtained from American Type Culture Collection (ATCC) and expanded in F12 medium supplemented with 15% Fetal Bovine Serum and 1% Penicillin/Streptomycin.
Each compound was dissolved in DMSO as a 10 mM stock and used to prepare compound source plates. Serial dilution (1:2, 11-point dose-response curves from […] to 0.94 nM) and compound transfer was performed using the ECHO 550 (Labcyte, Sunnyvale, Calif.) into 384-well clear bottom assay plates (Greiner Bio-One) with appropriate DMSO backfill for a final DMSO concentration of 0.1%. LL29 cells were plated at 1,500 cells/well in 70 μL/well F12 medium supplemented with 1% Fetal Bovine Serum. TGF-β1 (Peprotech; 20 ng/mL) was added to the plates to induce fibrosis (ref. 1 and 2 above). Wells treated with TGF-31 and containing DMSO were used as positive control, and cells with only DMSO were negative control. Cells were incubated at 37° C. and 5% CO2 for 4 days. Following incubation for 4 days, SYTOX green nucleic acid stain (Life Technologies [Thermo Fisher Scientific]) was added to the wells at a final concentration of 1 μM and incubated at room temperature for 30 min. Cells were then fixed using 4% formaldehyde (Electron Microscopy Sciences), washed 3 times with PBS followed by blocking and permeabilization using 3% Bovine Serum Albumin (BSA; Sigma) and 0.3% Triton X-100 (Sigma) in PBS. Cells were then stained with antibody specific to α-smooth muscle actin (αSMA; Abcam) (ref. 1 and 2 above) in 3% Bovine Serum Albumin (BSA; Sigma) and 0.3% Triton X-100 (Sigma) in PBS, and incubated overnight at 4° C. Cells were then washed 3 times with PBS, followed by incubation with Alexa Flor-647 conjugated secondary antibody (Life Technologies [Thermo Fisher Scientific]) and DAPI in 3% Bovine Serum Albumin (BSA; Sigma) and 0.3% Triton X-100 (Sigma) in PBS at room temperature for 1 hour. Cells were then washed 3 times with PBS and plates were sealed for imaging. αSMA staining was imaged by excitation at 630 nm and emission at 665 nm and quantified using the Compartmental Analysis program on the CellInsight CX5 (Thermo Scientific). Dead or apoptotic cells were excluded from analysis based on positive SYTOX green staining. % of total cells positive for αSMA were counted in each well and normalized to the average of 11 wells treated with TGF-β1 on the same plate using Dotmatics' Studies Software.

[3] = tested on: Tau phosphorylation at Ser396 (pSer396), SH-SY5Y cells; assay: Tau phosphorylation at Ser396 (pSer396) in SH-SY5Y cells, ELISA/western blot; type: cell-based, human;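 note: cell lysates probed for reduced Tau pSer396 via ELISA (colorimetric) or western blot (chemiluminescence), both with one shared pSer396 antibody, EC50 for lowering phosphorylation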
[4] = tested on: SW480 colon carcinoma cells; assay: Cell viability assay (CellTiter-Glo) in SW480 cells; type: cell-based, human; settings: Homo sapiens, 96 h; cell viability, SW480 cells, four days, CellTiter-Glo;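 note: SW480 cells stably carrying an Sp5-luciferase TCF/LEF reporter, luminescent ATP signal as viability measure, DMSO-treated cells as control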
IL-6 = IL-6 inhibition in LPS-stimulated human peripheral blood mononuclear cells (HTRF); type: cell-based; settings: Homo sapiens, PBMC; IL-6, LPS-stimulated huPBMCs, HTRF
Experimental: Fresh Normal PB MNC (Catalog # PB001, AllCells, Alameda, Calif.) were shipped overnight at 4° C. and resuspended in Roswell Park Memorial Institute (RPMI) 1640 Medium, with GlutaMAX Supplement (Catalog #61870127, ThermoFisher Scientific, Waltham, Mass.) supplemented with 1% Penicillin-Streptomycin (Catalog #151401633 ThermoFisher Scientific, Waltham, Mass.) and 1% fetal bovine serum (FBS) (Catalog #16140089, ThermoFisher Scientific, Waltham, Mass.) assay media.
Fresh normal human peripheral blood mononuclear cells (huPBMCs) were resuspended in 1% FBS-RPMI assay media with 1% Penicillin-Streptomycin 1% to a cell concentration of 1×10e6 cells/mL. Each compound was dissolved in DMSO (Catalog # D8418-100 ml, Sigma-Aldrich, St. Louis, Mo.) as a 10 mM stock and used to prepare compound source plates. Serial dilution (1:3, 10-point dose-response curves starting from 10 μM) and compound transfer was performed using the ECHO 550 (Labcyte, Sunnyvale, Calif.) into 384-well white Proxiplate-Plus assay plates (Catalog #6008289, PerkinElmer, Shelton, Conn.) with appropriate DMSO backfill for a final DMSO concentration of 0.25%. huPBMCs were plated at 5000 cells/well in the 384-well Proxiplate-Plus assay plates and incubated at 37° C.-5% CO2 for 2 hours. 50 ng/mL of Lipopolysaccharides from Escherichia coli 0111:B4 (Catalog # L5293-2 ML, Sigma-Aldrich, St. Louis, Mo.) was added after 2 hours and cells were incubated for another 22 hours at 37° C.-5% CO2. After 22 hour incubation, a mixture of anti-IL6 XL665 and anti-IL-6 Cryptate diluted in reconstitution buffer (Catalog #62IL6PEC, Cisbio Inc., Bedford, Mass.) was added to each well. Following incubation for 3 hours at room temperature, Homogeneous Time-Resolved Fluorescence (HTRF) was measured using the Envision (Perkin Elmer, Shelton, Conn.) at 665 nm and […]. The ratio of fluorescence at 665 nm to 620 nm was used as a readout for IL-6 quantification. All samples were processed in duplicate. Readings were normalized to DMSO treated cells and normalized activities were utilized for EC50 calculations. EC50 was determined using software generated by Dotmatics Limited (Windhill Bishops Stortford Herts, UK) using the Levenberg-Marquardt 4 parameter fitting procedure with finite different gradients.

[5] = Homo sapiens, SH-SY5Y cells, overnight (16-18 h), read-out: pSer396 Tau EC50

SMILES | pEC50 [1] | pEC50 [2] | pEC50 [3, 5] | pEC50 [4] | pEC50 (IL-6) | inhibition at 10 µM ([1]; SW480, read-out: percent inhibition at 10 μM) [%] | pEC50 ([3]; Homo sapiens, SH-SY5Y, read-out: EC50 in the Tau assay) | pEC50 ([3]; control DYRK1A inhibitors, printed '>10 M' (μ probably lost), read-out: EC50 in the Tau assay)
[2H]c1c(NC(=O)C2CCN(CC(C)C)CC2)ncc2ccc(-c3cnn(C)c3)cc12 [Compound 6, 1-Isobutyl-N-(6-(1-methyl-1H-pyrazol-4-yl)isoquinolin-3-yl-4-d)piperidine-4-carboxamide] | 6.09 | 6.88 | 6.99 | 5.91 | 6.01 | – | – | –
[2H]c1nc(NC(=O)c2ccnc(N3CCN(CC)CC3)c2)cc2cc(-c3cnn(C)c3)ccc12 [Compound 8, 2-(4-Ethylpiperazin-1-yl)-N-(6-(1-methyl-1H-pyrazol-4-yl)isoquinolin-3-yl-1-d)isonicotinamide] | 7.55 | 7.02 | < 5.00 | 7.00 | 6.03 | – | – | –
[2H]c1nc(NC(=O)c2ccnc(N3CCN(C(C)C)CC3)c2)cc2cc(-c3cnn(C)c3)ccc12 [Compound 9, 2-(4-Isopropylpiperazin-1-yl)-N-(6-(1-methyl-1H-pyrazol-4-yl)isoquinolin-3-yl-1-d)isonicotinamide] | 7.44 | 6.80 | < 5.00 | 6.97 | 5.73 | – | – | –
[2H]C1([2H])CCC([2H])([2H])N1c1cc(C(=O)Nc2cc3cc(-c4cnc(C)n4C)ccc3cn2)ccn1 [Compound 73, N-(6-(1,2-Dimethyl-1H-imidazol-5-yl)isoquinolin-3-yl)-2-(pyrrolidin-1-yl-2,2,5,5-d4)isonicotinamide] | 5.69 | 5.77 | < 5.00 | – | 5.68 | – | – | –
[2H]C1([2H])OC([2H])([2H])C([2H])([2H])N(c2cc(C(=O)Nc3cc4cc(-c5cnc(C)n5C)ccc4cn3)ccn2)C1([2H])[2H] [Compound 74, N-(6-(1,2-Dimethyl-1H-imidazol-5-yl)isoquinolin-3-yl)-2-(morpholino-d8) isonicotinamide] | < 5.00 | 5.90 | < 5.00 | 6.32 | 5.95 | 30.5 | – | –
[2H]C1([2H])N(c2cc(C(=O)Nc3cc4cc(-c5cncn5C)ccc4cn3)ccn2)C([2H])([2H])C([2H])([2H])C([2H])([2H])C1([2H])[2H] [Compound 75, N-(6-(1-Methyl-1H-imidazol-5-yl)isoquinolin-3-yl)-2-(piperidin-1-yl-d10) isonicotinamide] | 5.46 | 6.35 | < 5.00 | 6.35 | 6.07 | – | – | –
[2H]C1([2H])OC([2H])([2H])C([2H])([2H])N(c2cc(C(=O)Nc3cc4cc(-c5cncn5C)ccc4cn3)ccn2)C1([2H])[2H] [Compound 76, N-(6-(1-Methyl-1H-imidazol-5-yl)isoquinolin-3-yl)-2-(morpholino-d8) isonicotinamide] | 5.47 | 6.21 | < 5.00 | 6.34 | 6.03 | – | – | –
[2H]C1([2H])N(c2cc(C(=O)Nc3cc4cc(-c5cnc(C)n5C)ccc4cn3)ccn2)C([2H])([2H])C([2H])([2H])C1([2H])[2H] [Compound 77, N-(6-(1,2-Dimethyl-1H-imidazol-5-yl)isoquinolin-3-yl)-2-(pyrrolidin-1-yl-d8)isonicotinamide] | 5.48 | 5.67 | < 5.00 | – | 5.71 | – | – | –
[2H]C1([2H])N(c2cc(C(=O)Nc3cc4cc(-c5cncn5C)ccc4cn3)ccn2)C([2H])([2H])C([2H])([2H])C1([2H])[2H] [Compound 78, N-(6-(1-Methyl-1H-imidazol-5-yl)isoquinolin-3-yl)-2-(pyrrolidin-1-yl-d8) isonicotinamide] | 5.43 | 6.28 | < 5.00 | 6.33 | 5.98 | – | – | –
[2H]C1([2H])CCC([2H])([2H])N1c1cc(C(=O)Nc2cc3cc(-c4cncn4C)ccc3cn2)ccn1 [Compound 79, N-(6-(1-methyl-1H-imidazol-5-yl)isoquinolin-3-yl)-2-(pyrrolidin-1-yl-2,2,5,5-d4)isonicotinamide] | 5.39 | 6.24 | < 5.00 | 6.33 | 5.87 | – | – | –
Cc1nnc(-c2cc(F)c3cnc(NC(=O)C4CCC(NCC(F)F)CC4)cc3c2)s1 (stereo not shown) [Compound 204] | – | – | < 5.00 | – | – | – | – | –
COc1ccc2c(c1)[nH]c1c(C)nccc12 [Harmine, reference compound] | – | – | – | – | – | – | < 5.00 | –
CCN1/C(=C/C(C)=O)Sc2ccc(O)cc21 [Indy, reference compound] | – | – | – | – | – | – | – | < 5.00
